{
  "source": "paper PMC4976335",
  "about": "“Miniaturizing VEGF: Peptides mimicking the discontinuous VEGF receptor-binding site modulate the angiogenic response” (Scientific Reports, 2016)",
  "molecules": {"B1": {"name": "EP6 peptide (mini-VEGF; AcHx ligated to Hn6) (peptide)", "chain": "Ac-EKFMDVYQLKYKGIC[Ahp]QIMRIKPHQGQHIGETS-NH2", "modifications": "bridge 1-15 via isopeptide; reading uncertain; also: two peptides Hx (1-14, C-terminal amide after Ile14) and Hn (15-33) joined by isopeptide bond"}},
  "key": {"VEGFR2 [1]": {"test_system": "VEGFR2", "assay": "Antagonism of VEGF-stimulated VEGFR2 phosphorylation, western blot in PAEC overexpressing VEGFR2", "type": "cell-based"}, "[2]": {"test_system": "human umbilical vein endothelial cells (HUVECs)", "assay": "HUVEC proliferation assay (cell counting), with or without SU5614", "type": "cell-based", "conditions": "SU5614 (10 μM) alone, 0 ng/mL peptide, 72 h", "experimental": "As the activation of ERK1/2 pathway in ECs leads to DNA synthesis and cell proliferation, we evaluated whether EP3, EP5 and EP6 peptides were able to stimulate cell growth. A proliferation assay was performed on human umbilical vein endothelial cells (HUVECs). Cells in starvation medium were incubated with increasing concentrations (0.5, 5 and 50 ng/mL) of the selected peptides and VEGF, and cell number was counted after 72 h. […] Cell survival was evaluated by MTT assay in PAEC-VEGFR2 following stimulation with EP6 and equimolar concentration with control peptides for 48 h.\nThe same proliferation assay was repeated in HUVEC in presence of the tyrosine kinase inhibitor SU5614 (Table 1). In the presence of the inhibitor, the proliferative effect of the EP peptides was suppressed, confirming that EP-induced proliferation was correlated to VEGFR2 phosphorylation.\nHuman Umbilical Vein Endothelial Cells (HUVECs) were purchased from Lonza (Basel, Switzerland). All experiments were performed on low passage cell cultures. […]\nHUVECs were plated at density of 1500 cells/well in 96-well gelatin-coated microplates. […] Cell proliferation was evaluated as number of cells counted per well[35]."}, "VEGFR2 [3]": {"test_system": "VEGFR2", "assay": "VEGFR2 auto-phosphorylation (agonism), anti-phospho-Tyr western blot in PAEC overexpressing VEGFR2", "type": "cell-based"}, "C57 black mice": {"test_system": "C57 black mice", "assay": "In vivo Matrigel plug angiogenesis assay", "conditions": "500 ng/plug, subcutaneous Matrigel, 10 days, implants inspected and haemoglobin content measured (Fig. 7B)", "experimental": "Figure 7 In vitro and in vivo angiogenic properties of EP peptides. (A) HUVECs were plated onto a layer of basement membrane matrix (Matrigel) and incubated at 37 °C for 18 h in the presence of EP3, EP5, EP6 and VEGF (50 ng/mL). After treatment, photomicrographs of tubular structures (Top) were quantified as angiogenic index, calculated as the number of complete circles counted/field by microscope image analysis (Bottom). *p < 0.05 vs basal control. (B) In vivo Matrigel angiogenesis assay was performed by injecting Matrigel solution containing 500 ng of the selected EP peptides into the dorsal midline region of C57 black mice. […] After 10 days Matrigel implants were recovered (Top) and analyzed for their haemoglobin content (bottom). *p < 0.05 and **p < 0.01 vs Matrigel alone.\nThe pro-angiogenic activity of EP peptides was evaluated by an in vivo test, using Matrigel plugs loaded with EP3, EP5 or EP6 peptides or VEGF (500 ng/plug). […] The hemoglobin content of explanted plugs was measured by a spectrophotometric assay (Fig. 7B, Bottom).\nIn vivo Matrigel angiogenesis assay was performed as previously described. […] Plugs were resuspended in 1 ml of Drabkin’s reagent for 18 h on ice and haemoglobin concentration was determined by absorbance at 540 nm and compared with a standard curve (Sigma-Aldrich, Milan, Italy)."}, "[4]": {"target": "T1, second domain of VEGFR1 (VEGFR1D2) (UniProt P17948 129-229)", "T1 construct": "VEGFR1 (vascular endothelial growth factor receptor 1), second domain; The shifts were mapped onto the NMR structure PDB 1QSV of VEGFR1D2; also called domain 2 of VEGFR1; source: recombinant; 15N-labeled for the HSQC titration", "T1 sequence (P17948 129-229)": "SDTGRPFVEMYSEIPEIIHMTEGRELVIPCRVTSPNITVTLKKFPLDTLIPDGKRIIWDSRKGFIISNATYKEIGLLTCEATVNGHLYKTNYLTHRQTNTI", "assay": "NMR titration; 2D [15N,1H] HSQC chemical shift perturbation; 110 μM 15N-labeled VEGFR1D2, EP6 added from 27.5 to 550 μM; 20 mM Tris-HCl pH 7.5, 0.02% sodium azide, 10% 2H2O; 298 K; single-site fit, overall apparent KD as mean over the residues of the binding site", "conditions": "both partners purified"}},
  "note": "Bridges are numbered along the chain shown (N, C = ends). [ ]: non-standard residue; d: D form. isopeptide = not defined here; Ahp = NCCCCCCC(=O)O",
  "data": [
    {"molecule": "Cc1cc(C)c(/C=C2\\C(=O)Nc3ccc(Cl)cc32)[nH]1", "note": "[SU5614]", "values": [
      {"measurement": "antagonism of VEGF-stimulated VEGFR2 phosphorylation (in words)", "setting": "VEGFR2 [1]; EP/control peptides 50 ng/mL 15 min, then VEGF 50 ng/mL 15 min, SU5614 10 μM (Fig. 2B)", "value": "inhibited"},
      {"measurement": "VEGFR2 phosphorylation after VEGF, ∆ of fold increase respect to VEGF induced response", "setting": "VEGFR2 [1]; peptide 50 ng/mL pretreatment 15 min, then VEGF 50 ng/mL for additional 15 min, serum deprivation, SU5614 10 μM, western blot quantification, representative of three experiments", "value": "0.15 ± 0.05 ∆ of fold increase respect to VEGF induced response"},
      {"measurement": "HUVEC proliferation, cells counted/well", "setting": "[2]", "value": "63.5 ± 8.7", "unit": "cells counted/well"}
    ]},
    {"molecule": "Vascular Endothelial Growth Factor [VEGF]", "values": [
      {"measurement": "VEGFR2 phosphorylation, fold increase respect to Ctr", "setting": "VEGFR2 [3]; 50 ng/mL each, 15 min at 37 °C, PAEC overexpressing VEGFR2, western blot quantification, anti-phospho-Tyr, gels representative of three experiments", "value": "6.5 ± 1.3 fold increase respect to Ctr"},
      {"measurement": "VEGFR2 phosphorylation induced (in words)", "setting": "VEGFR2 [3]; 50 ng/mL, 15 min, PAEC overexpressing VEGFR2 (Fig. 2A)", "value": "induced VEGFR2 phosphorylation"},
      {"measurement": "blood vessel formation / angiogenesis in Matrigel plugs (in words)", "setting": "C57 black mice", "value": "blood vessel formation was observed"}
    ]},
    {"molecule": "B1", "values": [
      {"measurement": "Kd", "setting": "[4]", "value": 139, "unit": "µM"}
    ]}
  ]
}
